Reference: ChEMBL document CHEMBL1201862, “PubChem BioAssay data set” (2004)
Activity calls are given as the source filed them.

Tests used:
Nonstructural protein 1 = Nonstructural protein 1 (Influenza A virus, UniProt Q194T2); format: functional, Influenza A virus (A/California/07/2009(H1N1))
Fatty acid synthase [1] = target: T1, Fatty acid synthase (Homo sapiens, UniProt P49327); assay: inhibition of human FAS-TE enzyme activity – biochemical, endpoint fluorescence intensity, uHTS hits, dose response (AID 624327); format: functional;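 note: fluorescence from hydrolysis of an O-methyl fluorescein acyl ester substrate by the enzyme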
Fatty acid synthase [2] = target: T1, Fatty acid synthase; assay: inhibition of human FAS-TE enzyme activity – biochemical, kinetic fluorescence intensity, dose response (AID 624326); format: functional;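 note: rate of fluorescence rise from hydrolysis of a fluorogenic O-methyl fluorescein ester substrate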
[3] = target: Matrix metalloproteinase-14 (Homo sapiens, UniProt P50281); assay: Dose Response confirmation of uHTS hits for a small molecule inhibitors of MT1-MMP activation in a fluorescence assay set 1.; format: functional
[4] = Trypanosoma cruzi growth suppression in host cells – NIH3T3 host cells, beta-gal luminescence, confirmation (AID 2044); format: functional, cell-based;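 note: intracellular parasites grown in NIH/3T3 mouse fibroblasts as host cells; luminescent beta-galactosidase reporter signal from transgenic T. cruzi replicating inside host cells; inhibitors lower the luminescence signal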
[5] = NIH3T3 cell viability loss – ATP luminescence, mouse fibroblasts, counter-screen, dose response (AID 2010); format: functional, cell-based;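 note: cells exposed to compound for about 90 hours before reading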
[6] = target: Arf-GAP with SH3 domain, ANK repeat and PH domain-containing protein 1 (Homo sapiens, UniProt Q9ULH1); format: functional;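 note: biochemical fluorescence polarization dose–response screen measuring inhibition of ASAP1; ASAP1 GAP domain stimulating GTP hydrolysis by truncated human ARF1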
[7] = inhibition of ARNT PAS-B/TACC3 complex formation – biochemical, AlphaScreen, cherry-picked samples, confirmation (AID 651703); format: functional, Homo sapiens;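 note: His-tagged ARNT PAS-B domain paired with GST-TACC3 E629A dimer coactivator fragment; potency of inhibitors that break up the complex and lower AlphaScreen signal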
Paired box protein Pax-8 = Paired box protein Pax-8 (Homo sapiens, UniProt Q06710); assay: PAX8 transcriptional activity inhibition in RMG-I – RMG-I cells, luciferase, cherry-pick, dose response (AID 687027); format: functional, cell-based;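 note: luciferase reporter driven by Pax8 target thyroperoxidase promoter measured by SteadyGlo luminescence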
[8] = CMV-driven luciferase expression suppression in HEK293 – cell-based, luminescence, dry powder, counter-screen for Pax8 inhibitor project, dose response (AID 743020); format: functional
[9] = OVCAR-3 cell viability loss – plate reader, dry powder samples, PAX8 inhibitor project, dose response (AID 743044); format: functional, cell-based
[10] = IGROV1 cell killing – plate reader, dry powder samples, PAX8 inhibitor project, dose response (AID 743043); format: functional, cell-based; settings: IGROV-1
[11] = general cell-killing toxicity readout – plate reader, dry powder samples, cytotoxicity control for PAX8 inhibitor project, dose response (AID 743021); format: functional, cell-based
[12] = microbe, parasite or virus in culture; format: functional; settings: Mycobacterium tuberculosis
[13] = potency of ADAM10 substrate cleavage blockers – biochemical, QFRET, dose response (AID 743254);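 note: ADAM10 enzyme with the DM2 quenched FRET peptide as substrate; EDANS fluorescence gain as the protease cuts the substrate; inhibitor potency against ADAM10 proteolytic activity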
[14] = target: Disintegrin and metalloproteinase domain-containing protein 17 (Homo sapiens, UniProt P78536); assay: inhibition of ADAM17 substrate cleavage – biochemical, quenched FRET substrate, counter-screen for ADAM10 exosite inhibitor project, dose response (AID 743253)
cells [15] = format: functional, cell-based
[16] = target: T2, Trace amine-associated receptor 1 (Homo sapiens, UniProt Q96RJ0); assay: Fluorescence-based cell-based high throughput dose response assay to identify agonists of the human trace amine associated receptor 1 (TAAR1).; format: functional
[17] = target: T2, Trace amine-associated receptor 1; assay: Counterscreen for agonists of the human trace amine associated receptor 1 (hTAAR1): Fluorescence-based cell-based high throughput dose response assay to identify hTAAR1 agonist that also desensitize TAAR1 receptor response.; format: functional
cells [18] = format: functional, cell-based; remark: listed apart in the source
[19] = general mammalian cell viability loss – inhibitor set, cherry-pick, set 2, cytotoxicity control for miR-122 modulator project, dose response (AID 720697); format: functional, cell-based
Beta-galactosidase = Beta-galactosidase (Escherichia coli, UniProt Q8VNN2); assay: Dose response counterscreen for EBI2 assay utilizing the enzyme, b-galactosidase.; format: functional
HeLa = assay: viability loss in HeLa cells – cell-based, ATP luminescence, cherry-pick samples, cytotoxicity control, dose response (AID 687004); format: functional; settings: Homo sapiens
A549 = assay: viability loss in A549 cells – cell-based, plate reader, cherry-pick samples, cytotoxicity control, dose response (AID 687028); format: functional; settings: Homo sapiens
Vero = assay: viability loss in Vero cells – cell-based, plate reader, cherry-pick samples, cytotoxicity control, dose response (AID 687020); format: functional; settings: Chlorocebus sabaeus
[20] = target: Peroxisome proliferator-activated receptor gamma/Nuclear receptor corepressor 2 (Homo sapiens, UniProt P37231+Q9Y618); assay: Counterscreen for NR2E3 inverse agonists: TR-FRET-based biochemical high throughput dose response assay to identify inverse agonists of the interaction between peroxisome proliferator-activated receptor gamma (PPARg) and nuclear receptor co-repressor 2 (NCOR2).; format: functional
[21] = target: Photoreceptor-specific nuclear receptor (Homo sapiens, UniProt Q9Y5X4); assay: ligands suppressing NR2E3 nuclear receptor activity – biochemical, TR-FRET, dose response (AID 463256); format: functional
[22] = HGIII-sPLA2 enzyme inhibition potency – biochemical, QFRET, IC50, dose response (AID 743457);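 note: green fluorescence rise as the enzyme cleaves BODIPY PC-A2 in liposomes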
[23] = target: Hepatocyte nuclear factor 4-alpha (Homo sapiens, UniProt P41235); format: functional, cell-based;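 note: biochemical luminescence-based dose-response counterscreen measuring inhibition of HNF4 dimerization, run alongside a screen for blockers of ABHD5–perilipin-5 interaction; split luciferase complementation of HNF4 fusion proteins in cell lysate measuring dimerization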
[24] = target: T3, Probable nicotinate-nucleotide adenylyltransferase (Staphylococcus aureus (strain N315), UniProt P65502); format: functional, Staphylococcus aureus subsp. aureus N315;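 for IC50 Mean: confirmatory dose-response retesting of NadD inhibitor hits first found in an ultra-high-throughput screen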
[25] = target: T3, Probable nicotinate-nucleotide adenylyltransferase; format: functional, Staphylococcus aureus subsp. aureus N315; settings: read-out: IC50_Mean
[26] = target: NAD-dependent protein deacylase sirtuin-5, mitochondrial (Homo sapiens, UniProt Q9NXA8); assay: sirtuin-5 deacylation blockers, concentration series – biochemical, fluorescence imaging, cherry-pick, set 5, dose response (AID 720591);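 note: desuccinylation of succinyl peptide AMC substrate read as fluorescence after trypsin release; potency of inhibitors that lower fluorescence and may act on trypsin instead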
[27] = target: SWI/SNF-related matrix-associated actin-dependent regulator of chromatin subfamily A member 2 (Homo sapiens, UniProt P51531); assay: Luminescence-based cell-based high throughput dose response assay to identify activators of the function of SWI/SNF related, matrix associated, actin dependent regulator of chromatin, subfamily a, member 2 (SMARCA2, BRM).; format: functional
[28] = Counterscreen for activators of the function of SWI/SNF related, matrix associated, actin dependent regulator of chromatin, subfamily a, member 2 (SMARCA2, BRM): Luminescence-based cell-based high throughput dose response assay to identify non-selective compounds using the VP16 reporter assay.; format: functional
[29] = inhibitors of EBV LMP1 NF-kappaB signaling – cell-based, luciferase reporter, luminescence, dry powder, set 2, dose response (AID 624376); format: functional
[30] = LMP1-induced NF-kB luciferase signal inhibition – cell-based, EBV LMP1, dry powder, set 2, dose response (AID 624361); format: functional
[31] = target: T4, Sentrin-specific protease 1 (Homo sapiens, UniProt Q9P0U3); assay: SENP1 catalytic domain blockers, concentration series – biochemical, kinetic FRET, dose response (AID 651697); format: functional; settings: read-out: IC50_Mean
[32] = target: T4, Sentrin-specific protease 1; assay: Dose response confirmation of small molecule inhibitors of the catalytic domain of the SUMO protease, SENP1 in a FRET assay.; format: functional; settings: read-out: IC50_Mean
[33] = activation of miR-122 Renilla sensor silencing – cell-based, Huh7 psiCHECK-miR122, Renilla luciferase, cherry-picked, dose response (AID 651956); format: functional;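 note: huh7 hepatoma cells stably carrying a psiCHECK-2 miR-122 sensor plasmid; renilla luciferase signal reporting endogenous miR-122 activity after 48 h compound exposure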
Beta-lactamase [34] = target: Beta-lactamase (Pseudomonas aeruginosa, UniProt Q79MP6);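 note: biochemical dose-response test of metallo-beta-lactamase enzyme inhibition, read out by epi-absorbance; purified recombinant IMP-1 metallo-beta-lactamase with nitrocefin as substrate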
Beta-lactamase [35] = target: Beta-lactamase (Salmonella choleraesuis (strain SC-B67), UniProt Q5J463)
ORF 73 = target: T5, ORF 73 (Human herpesvirus 8, UniProt O40947); assay: KSHV LANA DNA-binding disruption – biochemical, fluorescence polarization, cherry-picked samples, dose response (AID 504725); design: species or system Human gammaherpesvirus 8;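 note: fluorescence polarization of a labeled DNA duplex reporting LANA DNA binding; potency is for inhibitors that block LANA binding to the DNA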
T5 sequence (O40947 whole entry): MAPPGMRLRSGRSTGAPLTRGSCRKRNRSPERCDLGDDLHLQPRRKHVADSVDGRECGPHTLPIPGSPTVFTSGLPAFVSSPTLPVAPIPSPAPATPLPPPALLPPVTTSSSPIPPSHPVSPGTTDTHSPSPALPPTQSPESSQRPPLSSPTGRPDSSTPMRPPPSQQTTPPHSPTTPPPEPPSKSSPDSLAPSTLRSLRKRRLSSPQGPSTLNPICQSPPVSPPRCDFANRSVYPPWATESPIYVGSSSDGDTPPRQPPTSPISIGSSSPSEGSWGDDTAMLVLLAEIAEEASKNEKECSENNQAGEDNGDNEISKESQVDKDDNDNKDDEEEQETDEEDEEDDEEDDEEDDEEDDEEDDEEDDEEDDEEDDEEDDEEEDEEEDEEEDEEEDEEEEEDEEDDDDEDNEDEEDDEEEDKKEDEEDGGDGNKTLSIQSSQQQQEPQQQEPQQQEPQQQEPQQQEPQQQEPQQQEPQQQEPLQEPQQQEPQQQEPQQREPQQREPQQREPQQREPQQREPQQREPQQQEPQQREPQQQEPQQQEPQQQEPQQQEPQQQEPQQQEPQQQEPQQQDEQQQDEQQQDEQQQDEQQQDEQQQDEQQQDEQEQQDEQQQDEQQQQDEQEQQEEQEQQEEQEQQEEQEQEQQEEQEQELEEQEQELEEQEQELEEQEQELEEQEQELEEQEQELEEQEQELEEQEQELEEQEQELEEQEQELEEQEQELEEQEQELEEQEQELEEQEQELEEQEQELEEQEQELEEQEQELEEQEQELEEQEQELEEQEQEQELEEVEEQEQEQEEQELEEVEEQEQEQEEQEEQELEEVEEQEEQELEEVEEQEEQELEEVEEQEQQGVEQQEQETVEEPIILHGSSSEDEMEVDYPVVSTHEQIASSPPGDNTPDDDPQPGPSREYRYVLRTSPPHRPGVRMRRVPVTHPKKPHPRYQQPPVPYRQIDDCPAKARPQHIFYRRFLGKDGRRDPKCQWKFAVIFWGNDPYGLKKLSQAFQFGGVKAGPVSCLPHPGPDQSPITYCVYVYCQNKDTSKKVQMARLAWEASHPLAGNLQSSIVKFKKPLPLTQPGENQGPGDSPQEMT

[36] = target: UDP-galactopyranose mutase (Mycobacterium tuberculosis, UniProt P9WIQ1); assay: Inhibitors of Mycobacterium tuberculosis UDP-galactopyranose mutase (UGM) enzyme Measured in Biochemical System Using Plate Reader - 2105-02_Inhibitor_Dose_CherryPick_Activity. [Related pubchem assays (depositor defined):AID504439]
Keap1/Nrf2 = Keap1/Nrf2 (Homo sapiens, UniProt Q14145); assay: disruptors of Keap1 binding to Nrf2 peptide – biochemical, fluorescence polarization, cherry-picked samples, dose response (AID 588683)

T2 sequence (Q96RJ0 whole entry): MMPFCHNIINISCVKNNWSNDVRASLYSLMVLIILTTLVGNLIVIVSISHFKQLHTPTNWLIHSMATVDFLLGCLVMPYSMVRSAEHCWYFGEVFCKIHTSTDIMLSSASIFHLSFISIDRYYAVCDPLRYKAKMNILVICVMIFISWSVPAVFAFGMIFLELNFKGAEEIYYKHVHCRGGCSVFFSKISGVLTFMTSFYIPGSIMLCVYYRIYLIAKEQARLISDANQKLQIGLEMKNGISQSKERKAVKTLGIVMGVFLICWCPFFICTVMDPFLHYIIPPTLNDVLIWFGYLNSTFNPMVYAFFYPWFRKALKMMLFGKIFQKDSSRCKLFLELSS
T4 sequence (Q9P0U3 whole entry, the tested form may be a part): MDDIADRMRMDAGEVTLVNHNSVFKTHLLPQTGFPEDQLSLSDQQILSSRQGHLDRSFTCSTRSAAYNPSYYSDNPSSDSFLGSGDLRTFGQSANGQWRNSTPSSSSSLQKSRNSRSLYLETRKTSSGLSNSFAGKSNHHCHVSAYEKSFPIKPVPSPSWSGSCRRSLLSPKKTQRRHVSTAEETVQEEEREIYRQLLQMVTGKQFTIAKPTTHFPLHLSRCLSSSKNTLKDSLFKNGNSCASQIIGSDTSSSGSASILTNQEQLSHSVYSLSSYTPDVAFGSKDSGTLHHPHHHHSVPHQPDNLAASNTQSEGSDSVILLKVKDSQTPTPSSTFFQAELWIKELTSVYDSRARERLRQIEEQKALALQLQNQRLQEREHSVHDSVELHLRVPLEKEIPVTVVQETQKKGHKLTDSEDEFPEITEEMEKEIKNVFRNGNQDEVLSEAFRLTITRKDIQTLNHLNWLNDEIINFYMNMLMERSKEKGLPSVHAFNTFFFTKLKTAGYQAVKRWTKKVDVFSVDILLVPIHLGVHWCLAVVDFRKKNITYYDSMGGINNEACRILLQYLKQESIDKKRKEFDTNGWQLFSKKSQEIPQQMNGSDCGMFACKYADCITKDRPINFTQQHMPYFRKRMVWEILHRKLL
T3 sequence (P65502 whole entry): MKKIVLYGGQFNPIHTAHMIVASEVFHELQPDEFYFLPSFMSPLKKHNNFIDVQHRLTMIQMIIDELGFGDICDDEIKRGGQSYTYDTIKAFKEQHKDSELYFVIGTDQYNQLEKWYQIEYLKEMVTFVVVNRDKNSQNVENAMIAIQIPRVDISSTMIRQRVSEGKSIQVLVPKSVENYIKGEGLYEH
T1 sequence (P49327 whole entry): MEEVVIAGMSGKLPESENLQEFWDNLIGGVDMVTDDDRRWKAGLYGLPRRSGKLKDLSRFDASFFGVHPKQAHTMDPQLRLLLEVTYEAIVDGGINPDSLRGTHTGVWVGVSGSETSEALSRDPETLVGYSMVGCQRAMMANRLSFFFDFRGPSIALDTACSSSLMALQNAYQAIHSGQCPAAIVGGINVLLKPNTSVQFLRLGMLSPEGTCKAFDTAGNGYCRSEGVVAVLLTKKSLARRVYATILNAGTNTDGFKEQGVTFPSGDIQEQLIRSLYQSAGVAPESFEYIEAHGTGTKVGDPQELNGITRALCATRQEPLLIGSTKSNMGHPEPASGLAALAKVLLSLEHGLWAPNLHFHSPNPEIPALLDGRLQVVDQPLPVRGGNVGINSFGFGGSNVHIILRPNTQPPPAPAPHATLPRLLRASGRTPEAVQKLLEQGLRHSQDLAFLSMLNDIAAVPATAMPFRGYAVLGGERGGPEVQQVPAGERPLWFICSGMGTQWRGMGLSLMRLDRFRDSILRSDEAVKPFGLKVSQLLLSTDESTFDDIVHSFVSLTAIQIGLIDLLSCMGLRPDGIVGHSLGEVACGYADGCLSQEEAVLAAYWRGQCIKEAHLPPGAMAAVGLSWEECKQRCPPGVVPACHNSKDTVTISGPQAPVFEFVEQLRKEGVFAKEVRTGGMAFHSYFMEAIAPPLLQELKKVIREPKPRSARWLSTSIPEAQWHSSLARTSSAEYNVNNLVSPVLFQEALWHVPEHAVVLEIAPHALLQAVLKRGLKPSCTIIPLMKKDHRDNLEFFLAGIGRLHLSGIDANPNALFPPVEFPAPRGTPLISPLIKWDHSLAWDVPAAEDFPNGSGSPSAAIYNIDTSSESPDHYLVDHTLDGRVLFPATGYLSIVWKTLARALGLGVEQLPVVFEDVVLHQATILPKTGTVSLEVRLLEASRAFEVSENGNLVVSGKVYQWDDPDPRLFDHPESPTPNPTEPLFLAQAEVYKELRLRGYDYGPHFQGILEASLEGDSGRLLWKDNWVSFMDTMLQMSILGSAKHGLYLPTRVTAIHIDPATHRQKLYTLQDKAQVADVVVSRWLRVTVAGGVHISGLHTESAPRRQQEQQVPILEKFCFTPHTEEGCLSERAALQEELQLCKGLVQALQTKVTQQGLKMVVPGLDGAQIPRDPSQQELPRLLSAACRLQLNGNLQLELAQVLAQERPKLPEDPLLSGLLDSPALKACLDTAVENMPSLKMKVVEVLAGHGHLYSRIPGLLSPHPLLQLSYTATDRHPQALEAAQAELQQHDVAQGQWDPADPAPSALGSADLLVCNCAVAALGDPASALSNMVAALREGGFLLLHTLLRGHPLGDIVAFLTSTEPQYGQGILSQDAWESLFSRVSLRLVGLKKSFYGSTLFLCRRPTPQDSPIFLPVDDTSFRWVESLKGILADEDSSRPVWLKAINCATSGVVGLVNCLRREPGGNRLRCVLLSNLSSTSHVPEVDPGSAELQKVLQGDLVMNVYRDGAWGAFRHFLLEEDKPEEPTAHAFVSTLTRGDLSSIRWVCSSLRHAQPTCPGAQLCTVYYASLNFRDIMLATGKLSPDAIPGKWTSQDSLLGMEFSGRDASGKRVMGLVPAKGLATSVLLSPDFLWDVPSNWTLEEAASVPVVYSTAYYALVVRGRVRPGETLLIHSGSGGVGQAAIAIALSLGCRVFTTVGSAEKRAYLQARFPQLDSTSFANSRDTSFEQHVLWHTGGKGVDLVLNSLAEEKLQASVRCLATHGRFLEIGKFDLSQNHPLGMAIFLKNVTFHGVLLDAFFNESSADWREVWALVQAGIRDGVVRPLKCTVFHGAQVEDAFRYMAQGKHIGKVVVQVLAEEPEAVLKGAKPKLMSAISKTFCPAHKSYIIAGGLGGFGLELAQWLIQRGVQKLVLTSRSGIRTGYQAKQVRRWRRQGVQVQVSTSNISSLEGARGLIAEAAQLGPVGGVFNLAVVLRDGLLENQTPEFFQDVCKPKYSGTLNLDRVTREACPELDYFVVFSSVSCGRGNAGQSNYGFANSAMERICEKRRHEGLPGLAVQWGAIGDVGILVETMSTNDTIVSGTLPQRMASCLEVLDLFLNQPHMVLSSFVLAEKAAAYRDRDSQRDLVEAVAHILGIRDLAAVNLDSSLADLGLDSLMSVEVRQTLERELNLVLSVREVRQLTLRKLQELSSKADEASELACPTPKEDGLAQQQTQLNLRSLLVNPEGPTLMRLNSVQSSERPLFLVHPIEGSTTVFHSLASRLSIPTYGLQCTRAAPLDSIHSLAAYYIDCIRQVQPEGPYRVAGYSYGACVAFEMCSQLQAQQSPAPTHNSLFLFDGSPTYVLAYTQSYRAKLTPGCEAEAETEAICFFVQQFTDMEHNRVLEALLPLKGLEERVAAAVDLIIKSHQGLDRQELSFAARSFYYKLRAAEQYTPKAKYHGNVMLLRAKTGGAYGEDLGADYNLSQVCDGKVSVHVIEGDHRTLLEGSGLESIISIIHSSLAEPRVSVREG
Chain of Hepatocyte nuclear factor 4-alpha (P41235 whole entry, the tested form may be a part): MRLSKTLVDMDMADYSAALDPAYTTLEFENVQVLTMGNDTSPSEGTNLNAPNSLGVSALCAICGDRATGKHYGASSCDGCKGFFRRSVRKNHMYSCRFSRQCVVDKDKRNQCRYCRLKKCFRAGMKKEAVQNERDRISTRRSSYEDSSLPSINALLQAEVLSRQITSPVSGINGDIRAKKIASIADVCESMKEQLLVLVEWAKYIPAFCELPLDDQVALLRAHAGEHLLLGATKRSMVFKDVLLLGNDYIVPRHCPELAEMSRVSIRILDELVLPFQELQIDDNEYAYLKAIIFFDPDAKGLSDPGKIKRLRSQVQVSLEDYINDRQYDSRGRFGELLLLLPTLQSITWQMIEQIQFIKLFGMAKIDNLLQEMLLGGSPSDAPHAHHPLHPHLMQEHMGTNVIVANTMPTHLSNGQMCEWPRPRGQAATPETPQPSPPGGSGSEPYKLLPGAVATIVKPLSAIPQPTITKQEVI
Chain of Paired box protein Pax-8 (Q06710 whole entry): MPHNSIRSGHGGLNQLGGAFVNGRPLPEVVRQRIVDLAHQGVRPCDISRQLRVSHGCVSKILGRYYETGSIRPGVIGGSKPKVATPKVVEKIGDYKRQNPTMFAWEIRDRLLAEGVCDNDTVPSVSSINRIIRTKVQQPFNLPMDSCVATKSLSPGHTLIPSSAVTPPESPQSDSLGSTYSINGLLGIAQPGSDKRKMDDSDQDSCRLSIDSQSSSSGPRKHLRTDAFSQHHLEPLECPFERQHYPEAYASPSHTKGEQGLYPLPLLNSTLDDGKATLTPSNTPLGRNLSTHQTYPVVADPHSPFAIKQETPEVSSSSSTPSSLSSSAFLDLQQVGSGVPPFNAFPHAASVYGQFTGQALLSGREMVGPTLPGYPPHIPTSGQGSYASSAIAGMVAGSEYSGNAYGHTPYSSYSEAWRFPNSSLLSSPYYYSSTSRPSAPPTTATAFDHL
Chain of Beta-lactamase (Salmonella choleraesuis (strain SC-B67), UniProt Q5J463) (Q5J463 whole entry): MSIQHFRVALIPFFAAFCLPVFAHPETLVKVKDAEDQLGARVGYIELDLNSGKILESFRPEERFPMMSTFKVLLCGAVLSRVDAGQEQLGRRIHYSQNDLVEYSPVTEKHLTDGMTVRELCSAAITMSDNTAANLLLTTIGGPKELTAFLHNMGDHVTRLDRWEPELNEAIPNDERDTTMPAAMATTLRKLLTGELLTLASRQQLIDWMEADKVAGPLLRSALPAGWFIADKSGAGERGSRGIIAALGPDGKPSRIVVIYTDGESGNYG

CN1C(=O)/C(=C\c2cc(N=Nc3ccccc3)ccc2O)SC1=S
IC50 (Nonstructural protein 1): 4.51 µM (active) | IC50 (Fatty acid synthase [1]): 33.7 µM (inactive) | IC50 (Fatty acid synthase [2]): 24.4 µM (inactive) | IC50 [3]: > 80 µM (inactive)

CCc1cccc2c(C(=O)CN3C(=O)NC(C)(c4cccc5ccccc45)C3=O)c[nH]c12 (centres undefined)
EC50 [4]: 1.75 µM (active) | EC50 [5]: > 30 µM (not active) | IC50 [6]: 165 µM (inactive)

O=C1c2cccnc2C(=O)N1Cc1ccc(S(=O)(=O)NCc2ccco2)s1
AC50 [7]: 98.4 µM (active)

C[C@@H]1CCCCO[C@@H](CN(C)S(=O)(=O)c2ccccc2)[C@H](C)CN([C@H](C)CO)C(=O)c2cc(NC(=O)Nc3ccc(C(F)(F)F)cc3)ccc2O1
AC50 (Paired box protein Pax-8): 3.44 µM (active) | AC50 [8]: 28.4 µM (active) | AC50 [9]: 20.2 µM (active) | AC50 [10]: 57.1 µM (active) | AC50 [11]: 54.7 µM (active)

Cc1ccc(C)c(S(=O)(=O)N2CCC(c3nc(O)c4nnn(Cc5ccc6c(c5)OCCO6)c4n3)CC2)c1
CC50 [12]: > 40 µM (active) | IC50 [13]: > 69.5 µM (inactive) | IC50 [14]: > 69.5 µM (inactive)

CC(C)[C@H](NC(=O)c1ccc(Cl)cc1Cl)C(=O)N1CCC[C@H]1C(=O)NCCc1ccccc1Cl
IC50 (cells [15]): > 29.9 µM (inactive) | EC50 [16]: 1.19 µM (active) | IC50 [17]: 3.47 µM (active) | EC50 (cells [18]): > 29.9 µM (inactive)

CCNC(=O)CCC(=O)Nc1cc(Cl)ccc1C
AC50 [19]: 9 µM (active)

COc1ccccc1N1CCN(C(=O)c2cc(=O)c3cc(C)ccc3o2)CC1
IC50 (Beta-galactosidase): > 80 µM (inactive)

CCC(=O)N(C)C[C@H]1Oc2cc(-c3ccccc3)ccc2S(=O)(=O)N([C@H](C)CO)C[C@H]1C
AC50 (HeLa): 4.07 µM (active)

CCOC(=O)[C@]12CCC=C1N(Cc1ccccc1)C(=O)[C@H](CC(=O)N1CCCC1)C2
AC50 (A549): 25.3 µM (active)

CN(C)C1(CNC(=O)C2CCN(S(=O)(=O)c3ccccc3C(F)(F)F)CC2)CCCCC1
AC50 (Vero): 36.2 µM (active)

CCn1c(S)nnc1-c1csc2c1CCCC2
IC50 [20]: > 39.8 µM (not active) | IC50 [21]: 25.2 µM (not active) | IC50 [22]: > 122 µM (inactive)

COc1cc(/C=C/C(=O)c2ccc(Cl)s2)cc(OC)c1O
IC50 [23]: 6.66 µM (active)

CCOC(=O)c1ccccc1NC(=O)c1ccc2c(SCC(=O)O)c3c(nc2c1)CCCC3
IC50 [24]: 5.7 µM (active) | IC50 [25]: 25 µM (active) | AC50 [26]: > 30 µM (inactive)

O=C(C=Cc1ccc(OCc2ccccc2)cc1)c1c(F)cccc1F
EC50 [27]: > 91.2 µM (inactive) | EC50 [28]: > 91.2 µM (inactive)

COc1ccc(CNC(=O)c2cc3c(c(-c4cccc(-c5ccc(C#N)cc5)c4)n2)[C@@H](CCO)N([S@+]([O-])C(C)(C)C)C3)cc1
AbsAC35 [29]: 56.25 µM | AbsAC35 [30]: 108.86 µM

O=C1CC[C@@H]2C[C@@]3(C[C@@H]4CCN1[C@H]24)Nc1cc([N+](=O)[O-])ccc1N=C3NCc1ccccc1
IC50 [31]: 18.3 µM (active) | IC50 [32]: 9.31 µM (active)

CN1C(=O)c2cc(NC(=O)c3cccs3)ccc2OC[C@H]2O[C@H](CC(=O)NCCN3CCCCC3)CC[C@@H]21
AC50 [33]: 43.3 µM (active)

Cc1cccc(N2C(=O)c3cccc4c(N)ccc(c34)C2=O)c1
IC50 (Beta-lactamase [34]): 21.4 µM (inactive) | IC50 (Beta-lactamase [35]): 10.1 µM (inactive) | AC50 (ORF 73): 5.93 µM (active) | AC50 [36]: 1.79 µM (active) | AC50 (Keap1/Nrf2): 1.82 µM (active)
